What was measured:
Type in all cases: biochemical
[1] = molecular target: Jarid1A (Homo sapiens (Human), UniProt P29375); experiment: Jarid1A in vitro enzyme inhibition assay (TR-FRET); conditions: 1 nM Jarid1A, 300 nM H3K4me3-biotin peptide, 2 μM alpha-ketoglutaric acid
Description: (§1) This assay determines the ability of a test compound to inhibit Jarid1A, Jarid1B, and JMJD2C demethylase activity. Baculovirus expressed Jarid1A (GenBank Accession #NM_001042603, AA1-1090) was purchased from BPS Bioscience (Cat#50110). Baculovirus expressed Jarid1B (GenBank Accession #NM_006618, AA 2-751) was purchased from BPS Bioscience (Cat #50121) or custom made by MolecularThroughput. Baculovirus expressed JMJD2C (GenBank Accession #BC143571, AA 2-372) was purchased from BPS Bioscience (Cat#50105).
(§2) The enzymatic assay of Jarid1A activity is based upon Time Resolved-Fluorescence Resonance Energy Transfer (TR-FRET) detection. The ability of test compounds to inhibit the activity of Jarid1A was determined in 384-well plate format under the following reaction conditions: 1 nM Jarid1A, 300 nM H3K4me3-biotin labeled peptide (Anaspec cat #64357), 2 μM alpha-ketoglutaric acid in assay buffer of 50 mM HEPES, pH7.3, 0.005% Brij35, 0.5 mM TCEP, 0.2 mg/ml BSA, 50 μM sodium L-ascorbate, and 2 μM ammonium iron(II) sulfate. Reaction product was determined quantitatively by TR-FRET after the addition of detection reagent Phycolink Streptavidin-allophycocyanin (Prozyme) and Europium-anti-mono- or di-methylated histone H3 lysine 4 (H3K4me1-2) antibody (PerkinElmer) in the presence of 5 mM EDTA in LANCE detection buffer (PerkinElmer) at a final concentration of 25 nM and 1 nM, respectively.
(§3) The reaction mixture was incubated at room temperature for 30 minutes, and terminated by the addition of 6 μl of 5 mM EDTA in LANCE detection buffer containing 50 nM Phycolink Streptavidin-allophycocyanin and 2 nM Europium-anti-H3K4me1-2 antibody. Plates were read by EnVisionMultilabel Reader in TR-FRET mode (excitation at 320 nm, emission at 615 nm and 665 nm) after 1 hour incubation at room temperature. A ratio was calculated (665/615) for each well and fitted to determine inhibition constant (IC50).

[2] = molecular target: JMJD2C (Homo sapiens (Human), UniProt Q9H3R0); experiment: JMJD2C in vitro enzyme inhibition assay (TR-FRET); conditions: 0.3 nM JMJD2C, 300 nM H3K9me3-biotin peptide, 2 μM alpha-ketoglutaric acid
JMJD2C, sequence (Q9H3R0 2-372): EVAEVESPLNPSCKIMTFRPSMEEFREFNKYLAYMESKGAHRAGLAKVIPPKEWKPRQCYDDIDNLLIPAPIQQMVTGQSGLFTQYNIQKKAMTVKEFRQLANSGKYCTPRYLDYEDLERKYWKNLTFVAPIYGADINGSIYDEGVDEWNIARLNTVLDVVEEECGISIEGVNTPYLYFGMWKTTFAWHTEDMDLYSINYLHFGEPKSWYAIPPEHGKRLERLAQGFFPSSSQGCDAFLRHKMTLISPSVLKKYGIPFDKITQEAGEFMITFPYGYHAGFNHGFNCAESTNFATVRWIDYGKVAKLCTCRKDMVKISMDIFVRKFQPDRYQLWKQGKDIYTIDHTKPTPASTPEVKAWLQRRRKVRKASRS
Description: as §1
The ability of test compounds to inhibit the activity of JMJD2C was determined in 384-well plate format under the following reaction conditions: 0.3 nM JMJD2C, 300 nM H3K9me3-biotin labeled peptide (Anaspec cat #64360), 2 μM alpha-ketoglutaric acid in assay buffer of 50 mM HEPES, pH7.3, 0.005% Brij35, 0.5 mM TCEP, 0.2 mg/ml BSA, 50 μM sodium L-ascorbate, and 2 μM ammonium iron(II) sulfate. Reaction product was determined quantitatively by TR-FRET after the addition of detection reagent Phycolink Streptavidin-allophycocyanin (Prozyme) and Europium-anti-di-methylated histone H3 lysine 9 (H3K9me2) antibody (PerkinElmer) in the presence of 5 mM EDTA in LANCE detection buffer (PerkinElmer) at a final concentration of 50 nM and 1 nM, respectively.
as §3, with “containing 100” for “containing 50”, “nM Europium-anti-H3K9me2” for “nM Europium-anti-H3K4me1-2”

[3] = molecular target: Jarid1B (Homo sapiens (Human), UniProt Q9UGL1); experiment: Jarid1B in vitro enzyme inhibition assay (TR-FRET); conditions: 0.8 nM Jarid1B, 300 nM H3K4me3-biotin peptide, 2 μM alpha-ketoglutaric acid
Jarid1B, sequence (Q9UGL1 2-751): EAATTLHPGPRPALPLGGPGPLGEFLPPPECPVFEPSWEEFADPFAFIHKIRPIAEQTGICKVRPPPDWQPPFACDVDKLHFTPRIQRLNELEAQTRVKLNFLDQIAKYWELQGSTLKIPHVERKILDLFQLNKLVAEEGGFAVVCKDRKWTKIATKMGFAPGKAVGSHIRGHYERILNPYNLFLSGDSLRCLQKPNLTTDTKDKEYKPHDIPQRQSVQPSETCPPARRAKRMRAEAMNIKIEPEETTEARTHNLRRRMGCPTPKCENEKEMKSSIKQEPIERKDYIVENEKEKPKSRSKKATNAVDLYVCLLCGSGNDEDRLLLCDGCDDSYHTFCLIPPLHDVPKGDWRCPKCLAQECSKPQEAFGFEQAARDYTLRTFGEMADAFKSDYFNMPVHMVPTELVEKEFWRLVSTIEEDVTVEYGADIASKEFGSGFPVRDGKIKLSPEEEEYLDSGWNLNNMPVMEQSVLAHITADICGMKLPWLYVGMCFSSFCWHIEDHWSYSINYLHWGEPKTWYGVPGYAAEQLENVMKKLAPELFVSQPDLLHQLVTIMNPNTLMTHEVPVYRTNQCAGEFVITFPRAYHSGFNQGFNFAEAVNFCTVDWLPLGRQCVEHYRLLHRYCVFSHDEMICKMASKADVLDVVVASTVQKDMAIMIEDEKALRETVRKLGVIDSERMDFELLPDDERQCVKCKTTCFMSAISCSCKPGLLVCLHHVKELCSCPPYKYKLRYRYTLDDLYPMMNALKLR
Description: as §1
as §2, with “The” for “The enzymatic assay of Jarid1A activity is based upon Time Resolved-Fluorescence Resonance Energy Transfer (TR-FRET) detection. The”, “of Jarid1B” for “of Jarid1A”, “conditions: 0.8” for “conditions: 1”, “nM Jarid1B,” for “nM Jarid1A,”
as §3

Jarid1A, sequence (P29375 1-1090): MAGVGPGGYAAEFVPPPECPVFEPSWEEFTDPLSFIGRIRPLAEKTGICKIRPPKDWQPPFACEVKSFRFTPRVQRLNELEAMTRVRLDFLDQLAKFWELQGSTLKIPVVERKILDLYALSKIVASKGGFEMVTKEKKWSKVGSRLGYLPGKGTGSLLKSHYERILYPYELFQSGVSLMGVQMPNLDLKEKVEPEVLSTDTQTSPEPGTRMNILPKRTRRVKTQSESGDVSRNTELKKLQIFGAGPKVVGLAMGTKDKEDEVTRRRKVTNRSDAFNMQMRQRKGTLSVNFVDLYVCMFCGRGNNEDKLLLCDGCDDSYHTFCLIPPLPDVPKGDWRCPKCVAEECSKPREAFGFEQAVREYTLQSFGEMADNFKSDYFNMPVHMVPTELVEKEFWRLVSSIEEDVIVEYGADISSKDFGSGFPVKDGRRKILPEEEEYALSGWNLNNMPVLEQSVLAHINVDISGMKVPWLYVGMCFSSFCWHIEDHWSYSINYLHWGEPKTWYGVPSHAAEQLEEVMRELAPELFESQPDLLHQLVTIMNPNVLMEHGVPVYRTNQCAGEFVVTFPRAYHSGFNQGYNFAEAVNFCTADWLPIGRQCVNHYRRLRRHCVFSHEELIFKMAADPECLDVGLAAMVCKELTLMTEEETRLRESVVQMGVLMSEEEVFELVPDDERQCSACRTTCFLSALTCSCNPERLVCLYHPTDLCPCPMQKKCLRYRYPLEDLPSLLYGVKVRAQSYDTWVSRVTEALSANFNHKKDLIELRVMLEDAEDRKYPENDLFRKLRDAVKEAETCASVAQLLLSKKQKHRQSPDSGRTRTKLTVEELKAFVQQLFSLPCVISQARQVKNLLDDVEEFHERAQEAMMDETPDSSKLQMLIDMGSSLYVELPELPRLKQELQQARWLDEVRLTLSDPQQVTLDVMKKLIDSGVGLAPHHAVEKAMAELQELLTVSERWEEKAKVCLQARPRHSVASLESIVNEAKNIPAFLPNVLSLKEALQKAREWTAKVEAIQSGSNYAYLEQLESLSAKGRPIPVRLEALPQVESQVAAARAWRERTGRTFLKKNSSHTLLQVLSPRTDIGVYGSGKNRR

Row | Structure (SMILES) | IC50 [1] [nM] | IC50 [2] [nM] | IC50 [3] [nM]
1 | O=C(O)c1ccnnc1NCc1ccccc1 [Example 1, 3-(benzylamino)pyridazine-4-carboxylic acid] | ≤ 100 | ≤ 100 | 100 to 1000
2 | O=C(O)c1ccncc1NCc1ccccc1F [Example 2, 3-[(2-fluorobenzyl)amino)pyridine-4-carboxylic acid] | – | ≤ 100 | ≤ 100
3 | O=C(O)c1ccncc1NCc1cccc(F)c1 [Example 3, 3-[(3-fluorobenzyl)amino)pyridine-4-carboxylic acid] | – | ≤ 100 | ≤ 100
4 | O=C(O)c1ccncc1NCc1ccc(F)cc1 [Example 4, 3-[(4-fluorobenzyl)amino]pyridine-4-carboxylic acid] | ≤ 100 | ≤ 100 | ≤ 100
5 | N#Cc1ccc(CNc2cnccc2C(=O)O)cc1 [Example 5, 3-[(4-cyanobenzyl)amino]pyridine-4-carboxylic acid] | ≤ 100 | ≤ 100 | ≤ 100
6 | COc1ccc(CNc2cnccc2C(=O)O)cc1 [Example 7, 3-[(4-methoxybenzyl)amino]pyridine-4-carboxylic acid] | – | ≤ 100 | ≤ 100
7 | O=C(O)c1ccncc1NCc1ccc(C(F)(F)F)cc1 [Example 8, 3-{[4-(trifluoromethyl)benzyl]amino}pyridine-4-carboxylic acid] | ≤ 100 | ≤ 100 | ≤ 100
8 | O=C(O)c1ccncc1NCc1ccc(-c2ccccc2)cc1 [Example 9, 3-[(biphenyl-4-ylmethyl)amino]pyridine-4-carboxylic acid] | – | 1000 to 10000 | 100 to 1000
9 | O=C(O)c1ccncc1NCc1ccc(Cl)cc1 [Example 10, 3-[(4-chlorobenzyl)amino]pyridine-4-carboxylic acid] | – | ≤ 100 | ≤ 100
10 | O=C(O)c1ccncc1NCc1ccc(Oc2ccccc2)cc1 [Example 12, 3-[(4-phenoxybenzyl)amino]pyridine-4-carboxylic acid] | – | 100 to 1000 | ≤ 100
11 | CN(C)Cc1ccccc1CNc1cnccc1C(=O)O [Example 13, 3-({2-[(dimethylamino)methyl]benzyl}amino)pyridine-4-carboxylic acid] | – | ≤ 100 | ≤ 100
12 | O=C(O)c1ccncc1NCc1ccc(Cl)c(Cl)c1 [Example 14] | – | ≤ 100 | ≤ 100
13 | Cc1cc(Cl)ccc1CNc1cnccc1C(=O)O [Example 15, 3-[(4-chloro-2-methylbenzyl)amino]pyridine-4-carboxylic acid] | – | ≤ 100 | ≤ 100
14 | COc1ccc(CNc2cnccc2C(=O)O)c(OC)c1 [Example 16, 3-[(2,4-dimethoxyoxybenzyl)amino]pyridine-4-carboxylic acid] | – | 100 to 1000 | ≤ 100
15 | O=C(O)c1ccncc1NCc1ccccc1O [Example 17, 3-[(2-hydroxybenzyl)amino]pyridine-4-carboxylic acid] | – | ≤ 100 | ≤ 100
16 | O=C(O)c1ccncc1NCc1ccc(Cl)cc1Cl [Example 18, 3-[(2,4-dichlorobenzyl)amino]pyridine-4-carboxylic acid] | ≤ 100 | ≤ 100 | ≤ 100
17 | O=C(O)c1ccncc1NCc1ccccc1C1CC1 [Example 19, 3-[(2-cyclopropylbenzyl)amino]pyridine-4-carboxylic acid] | – | ≤ 100 | ≤ 100
18 | COc1cc(Cl)ccc1CNc1cnccc1C(=O)O [Example 20, 3-[(4-chloro-2-methoxybenzyl)amino]pyridine-4-carboxylic acid] | ≤ 100 | 100 to 1000 | ≤ 100
20 | O=C(O)c1ccncc1NCC1CCCc2ccc(F)cc21 (centres unmarked) [Example 50, 3-{[(7-fluoro-1,2,3,4-tetrahydronaphthalen-1-yl)methyl]amino}pyridine-4-carboxylic acid] | – | 100 to 1000 | ≤ 100
21 | O=C(O)c1ccncc1NC[C@H]1CCOc2cc(-c3ccccc3F)ccc21 [Example 95, 3-({[(4S)-7-(2-fluorophenyl)-3,4-dihydro-2H-chromen-4-yl]methyl}amino)pyridine-4-carboxylic acid] | – | 100 to 1000 | –
22 | O=C(O)c1ccncc1NC[C@@H]1CCOc2cc(-c3ccccc3F)ccc21 [Example 96, 3-({[(4R)-7-(2-fluorophenyl)-3,4-dihydro-2H-chromen-4-yl]methyl}amino)pyridine-4-carboxylic acid] | – | 1000 to 10000 | –
23 | O=C(O)c1ccncc1NC[C@H]1CCCc2cc(OCCC3CC3)ccc21 [Example 97, 3-({[(1S)-6-(2-cyclopropylethoxy)-1,2,3,4-tetrahydronaphthalen-1-yl]methyl}amino)pyridine-4-carboxylic acid] | – | 100 to 1000 | –
24 | O=C(O)c1ccncc1NC[C@@H]1CCCc2cc(OCCC3CC3)ccc21 [Example 98, 3-({[(1R)-6-(2-cyclopropylethoxy)-1,2,3,4-tetrahydronaphthalen-1-yl]methyl}amino)pyridine-4-carboxylic acid] | – | 1000 to 10000 | –
25 | O=C(O)c1ccncc1NC[C@H]1CCCc2cc(OCCC(F)(F)F)ccc21 [Example 99, 3-({[(1S)-6-(3,3,3-trifluoropropoxy)-1,2,3,4-tetrahydronaphthalen-1-yl]methyl}amino)pyridine-4-carboxylic acid] | – | 100 to 1000 | –
26 | O=C(O)c1ccncc1NC[C@@H]1CCCc2cc(OCCC(F)(F)F)ccc21 [Example 100, 3-({[(1R)-6-(3,3,3-trifluoropropoxy)-1,2,3,4-tetrahydronaphthalen-1-yl]methyl}amino)pyridine-4-carboxylic acid] | – | 100 to 1000 | –
27 | O=C(O)c1ccnnc1NCC1CCCc2cc(OCCC(F)(F)F)ccc21 (centres unmarked) [Example 101, 3-({[6-(3,3,3-trifluoropropoxy)-1,2,3,4-tetrahydronaphthalen-1-yl]methyl}amino)pyridazine-4-carboxylic acid] | – | 100 to 1000 | –
28 | COc1ccc2c(c1F)CCCC2CNc1cnccc1C(=O)O (centres unmarked) [Example 102, 3-{[(5-fluoro-6-methoxy-1,2,3,4-tetrahydronaphthalen-1-yl)methyl]amino}pyridine-4-carboxylic acid] | – | 100 to 1000 | –
29 | Cc1ccc2c(c1C)CCCC2CNc1cnccc1C(=O)O (centres unmarked) [Example 103, 3-{[(5,6-dimethyl-1,2,3,4-tetrahydronaphthalen-1-yl)methyl]amino}pyridine-4-carboxylic acid] | – | 100 to 1000 | –
30 | O=C(O)c1ccncc1NCC1CCCc2cc(Oc3cccc(C(F)(F)F)n3)ccc21 (centres unmarked) [Example 104, 3-{[(6-{[6-(trifluoromethyl)pyridin-2-yl]oxy}-1,2,3,4-tetrahydronaphthalen-1-yl)methyl]amino}pyridine-4-carboxylic acid] | – | 100 to 1000 | –
